According to patent US4374857A, “Method of inhibiting L-tryptophan to serum albumin binding” (Her Majesty the Queen in right of Canada, as represented by …, priority 1982, dated 1983):
“Also recorded” adds a separate entry of the source.

Molecular target: T1, human serum albumin (Homo sapiens, UniProt P02768)
T1 construct: purchased Sigma, St. Louis, MO
Test: Equilibrium dialysis of 14C-L-TRP binding to human serum albumin in presence of ligands (Scatchard plots)
Conditions: for effect on L-TRP binding to albumin: one molar equivalent of ligand; for effect on L-TRP binding capacity of albumin: second and third molar equivalents of ligand; for reduction of the affinity (Ka) of L-TRP for albumin: two moles of ligand per mole albumin, equilibrium dialysis, 37° C., pH 7.4
Experimental: Human serum albumin (Fraction V) was purchased from Sigma, St. Louis, MO. The protein was defatted with activated charcoal according to Chen, R. F. (1967), J. Biol. Chem 242: 173-181 and monomeric albumin purified as previously described in Soltys, B. J. and Hsia, J. C. (1977), J. Biol. Chem. 252: 4043-4048. Protein concentration was determined by absorption of ultraviolet light, assuming E279 nm^1% =5.30 according to Clark, P., Rachinsky, M. R. and Foster, J. F. (1962), J. Biol. Chem. 237: 2509-2513. The sodium salt of cis-parinaric acid was dissolved in 1×10^-4 Malbumin in Ringer's buffer. The Ringer's buffer contained 110 mM NaCl, 5 mM KCl, 1.2 mM MgSO4, 1.2 mM KH2 PO4 and 10 mM Na2 HPO4 at a pH of 7.4 at 37° C. L-tryptophan, stearate and bilirubin were also purchased from Sigma, St. Louis, MO. cis-parinaric acid was purchased from Molecular Probes Inc., Plano, TX. L-[side chain-3 -^14 C]-tryptophan (^14 C-L-TRP) was purchased from New England Nuclear, Boston, Mass. Fatty acids and bilirubin were dissolved in albumin solution essentially as previously described in Soltys, B. J. and Hsia, J. C. (1977), J. Viol. Chem. 252: 4043-4048. Briefly, fatty acid or bilirubin (sodium salt) in methanol was dried under vacuum in dim light to form a thin film in a small glass vial. The albumin solution was added to the vial and gently blended on a Vortex mixer until optically clear.
Equilibrium dialysis cells (approximately 200 μl total capacity) with injection/sampling ports were used. Dialysis membranes (Canlab, Toronto, Ont), previously boiled in distilled water, were placed on one half-cell and then the two half-cells were bolted together. 100 ul of albumin (1×10^-4 M), or its ligand complex was added to one side of the dialysis cells, while 100 μl of a solution of ^14 C-L-TRP was added to the other side.
The cells were sealed with tape and incubated with slight oscillation at 37±0.5° C. in a jacketed incubator (Model 3314, Forma Scientific, Marietta, OH). The cells contained total amount of L-TRP varying from 0.5 to 20 times the number of moles of albumin. After six hours incubation, 25 μl samples were drawn from the albumin side and the buffer side of each cell. These were counted in 6 ml plastic scintillation vials (Canlab) containing 5 ml Aquasol (New England Nuclear) in a liquid scintillation counter (LS 9000, Beckman, Irvine, CA). A quench curve was constructed to correct for quenching of counts by bilirubin.
The equation for the Scatchard plot is
where n is the number of binding sites and Ka is the apparent association constant. Thus the r-intercept is n and the r/c-intercept is nK (a measure of binding capacity), while the negative slope yields the Ka.

T1 sequence (P02768 25-609): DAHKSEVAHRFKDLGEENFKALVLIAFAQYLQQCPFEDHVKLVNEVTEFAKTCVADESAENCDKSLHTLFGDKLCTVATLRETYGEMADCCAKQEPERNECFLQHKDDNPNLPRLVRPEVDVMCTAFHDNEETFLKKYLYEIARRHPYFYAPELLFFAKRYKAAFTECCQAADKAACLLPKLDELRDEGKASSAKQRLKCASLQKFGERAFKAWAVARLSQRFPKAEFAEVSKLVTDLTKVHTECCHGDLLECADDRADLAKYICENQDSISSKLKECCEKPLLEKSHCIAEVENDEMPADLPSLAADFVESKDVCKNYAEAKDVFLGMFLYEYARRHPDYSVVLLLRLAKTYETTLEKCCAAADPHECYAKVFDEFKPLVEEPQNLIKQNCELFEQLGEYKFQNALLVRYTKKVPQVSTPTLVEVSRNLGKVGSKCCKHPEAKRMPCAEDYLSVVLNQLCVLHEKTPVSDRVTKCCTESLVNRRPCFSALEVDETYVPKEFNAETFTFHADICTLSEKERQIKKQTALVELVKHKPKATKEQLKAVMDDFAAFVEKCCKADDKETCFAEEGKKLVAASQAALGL

Row | Structure (SMILES) | number of primary binding sites on human serum albumin (Scatchard plot without competing ligand (FIG. 1)) | effect on L-TRP binding to albumin | effect on L-TRP binding capacity of albumin | displacement of albumin-bound tryptophan (2:1 ligand-to-albumin ratio) | effect on specific (primary site) L-TRP binding capacity of albumin (4.0 moles of ligand per mole albumin) | inhibitory effect on L-TRP binding capacity of albumin (higher molar ratios (2.0 to 4.0) of ligand) | reduction of the affinity (Ka) of L-TRP for albumin [%]
1 | N[C@@H](Cc1c[nH]c2ccccc12)C(=O)O [L-TRP, L-tryptophan] | one |  |  |  |  |  | 
2 | C=CC1=C(C)/C(=C/c2[nH]c(Cc3[nH]c(/C=C4\NC(=O)C(C)=C4C=C)c(C)c3CCC(=O)O)c(CCC(=O)O)c2C)NC1=O [bilirubin, reference compound] |  | did not affect; also recorded: little effect | progressive inhibition |  |  |  | 
3 | CC\C=C/C=C/C=C/C=C\CCCCCCCC(=O)O [cis-parinaric acid, cis, trans, trans, cis-9,11,13,15-octadecatetraenoic acid] |  | strong inhibitory effect | abolished | up to 90% | completely blocked; also recorded: completely abolished | most effective | 80
4 | CCCCCCCCCCCCCCCCCC(=O)O [stearate, reference compound] |  |  |  |  |  |  | 20
